{
  "source": "patent US4751221A",
  "about": "“2-fluoro-arabinofuranosyl purine nucleosides” (Sloan-Kettering Institute for Cancer Research, priority 1985, dated 1988)",
  "key": {"P-813 cells": {"system": "P-813 cells", "assay": "Cytotoxicity against P-813 (text: P-815) mouse leukemia cells", "type": "cell-based", "details": "for pIC50: P815, mouse leukemia cells P-813, read-out: ID50 P-813; for activity against mouse leukemic cells P-815: in words"}, "NL (Namalva) cells": {"system": "NL (Namalva) cells", "assay": "Cytotoxicity against NL (Namalva) human tumor cells", "type": "cell-based", "details": "for pIC50: NAMALVA, human cells NL, read-out: ID50 NL; for inhibitory activity against human tumor cell line Namalva: in words"}, "CCRF-CEM cells": {"system": "CCRF-CEM cells", "assay": "Cytotoxicity against CCRF-CEM human tumor cells", "type": "cell-based", "details": "for pIC50: human cells CCRF-CEM, read-out: ID50 CCRFCEM; for inhibitory activity against human tumor cell line CCRF-CEM: in words"}, "L-1210 cells": {"system": "L-1210 cells", "assay": "Cytotoxicity against L-1210 mouse leukemia cells", "type": "cell-based", "details": "for activity against mouse leukemic cells L-1210: in words"}, "[1]": {"system": "Leishmania tropica promastigotes", "assay": "Growth inhibition of Leishmania tropica promastigotes", "type": "cell-based", "details": "50% growth inhibition, read-out: inhibits the growth of Leishmania tropica promastigotes by 50% at the concentration"}, "[2]": {"system": "L-1210 mouse leukemic cells", "details": "in tissue culture; Wilson et al., J. Med. Chem., 13, 369 (1970); cited from earlier work"}},
  "note": "pIC50: −log10 of the molar value.",
  "data": [
    {"smiles": "Nc1ncnc2c1ncn2[C@@H]1O[C@H](CO)[C@@H](O)[C@@H]1F", "note": "[X = NH2, Y = H, 9-(2'-deoxy-2'-fluoro-β-D-arabinofuranosyl)adenine]", "values": [
      {"measurement": "pIC50", "setting": "P-813 cells", "result": "< 4.52"},
      {"measurement": "pIC50", "setting": "NL (Namalva) cells", "result": 5.52},
      {"measurement": "pIC50", "setting": "CCRF-CEM cells", "result": 6.17}
    ]},
    {"smiles": "O=c1[nH]cnc2c1ncn2[C@@H]1O[C@H](CO)[C@@H](O)[C@@H]1F", "note": "[9-(2'-deoxy-2'-fluoro-β-D-arabinofuranosyl)hypoxanthin]", "values": [
      {"measurement": "pIC50", "setting": "L-1210 cells; L1210, mouse leukemia cells L-1210, read-out: ID50 L-1210", "result": "< 4.52"},
      {"measurement": "cytotoxicity against L-1210 cells", "setting": "L-1210 cells; at the concentration of 100 μM", "result": "does not exhibit any cytotoxicity"},
      {"measurement": "pIC50", "setting": "P-813 cells", "result": "< 4.52"},
      {"measurement": "pIC50", "setting": "NL (Namalva) cells", "result": "~4.52"},
      {"measurement": "pIC50", "setting": "CCRF-CEM cells", "result": 4.82},
      {"measurement": "pIC50", "setting": "[1]", "result": 6.22}
    ]},
    {"smiles": "Nc1nc2c(ncn2[C@@H]2O[C@H](CO)[C@@H](O)[C@@H]2F)c(=O)[nH]1", "note": "[9-(2'-deoxy-2'-fluoro-β-D-arabinofuranosyl)-guanine]", "values": [
      {"measurement": "activity against mouse leukemic cells L-1210", "setting": "L-1210 cells", "result": "modest"},
      {"measurement": "pIC50", "setting": "P-813 cells", "result": 5.27},
      {"measurement": "activity against mouse leukemic cells P-815", "setting": "P-813 cells", "result": "modest"},
      {"measurement": "pIC50", "setting": "NL (Namalva) cells", "result": 6.15},
      {"measurement": "inhibitory activity against human tumor cell line Namalva", "setting": "NL (Namalva) cells", "result": "potent inhibitory activity"},
      {"measurement": "pIC50", "setting": "CCRF-CEM cells", "result": "> 7.00"},
      {"measurement": "inhibitory activity against human tumor cell line CCRF-CEM", "setting": "CCRF-CEM cells", "result": "potent inhibitory activity"}
    ]},
    {"smiles": "OC[C@H]1O[C@@H](n2cnc3c(S)ncnc32)[C@@H](F)[C@@H]1O", "note": "[X = SH, Y = H, 9-(2'-deoxy-2'-fluoro-β-D-arabinofuranosyl)-6-thiopurine]", "values": [
      {"measurement": "pIC50", "setting": "P-813 cells", "result": 5.00},
      {"measurement": "pIC50", "setting": "NL (Namalva) cells", "result": 5.70},
      {"measurement": "pIC50", "setting": "CCRF-CEM cells", "result": 5.00}
    ]},
    {"smiles": "Nc1nc(S)c2ncn([C@@H]3O[C@H](CO)[C@@H](O)[C@@H]3F)c2n1", "note": "[9-(2'-deoxy-2'-fluoro-β-D-arabinofuranosyl)-2-amino-6-thiopurine]", "values": [
      {"measurement": "activity against mouse leukemic cells L-1210", "setting": "L-1210 cells", "result": "modest"},
      {"measurement": "pIC50", "setting": "P-813 cells", "result": 5.34},
      {"measurement": "activity against mouse leukemic cells P-815", "setting": "P-813 cells", "result": "modest"},
      {"measurement": "pIC50", "setting": "NL (Namalva) cells", "result": 5.92},
      {"measurement": "inhibitory activity against human tumor cell line Namalva", "setting": "NL (Namalva) cells", "result": "potent inhibitory activity"},
      {"measurement": "pIC50", "setting": "CCRF-CEM cells", "result": 7.00},
      {"measurement": "inhibitory activity against human tumor cell line CCRF-CEM", "setting": "CCRF-CEM cells", "result": "potent inhibitory activity"}
    ]},
    {"smiles": "Nc1ccn([C@@H]2O[C@H](CO)[C@@H](O)[C@@H]2F)c(=O)n1", "note": "[FAC, 1-(2'-deoxy-2'-fluoro-β-D-arabinofuranosyl)cytosine]", "values": [
      {"measurement": "growth-inhibitory effect against L-1210 mouse leukemic cells", "setting": "[2]", "result": "comparable with that of 1-(β-D-arabinofuranosyl)cytosine (ara-C) and 1-(β-D-arabinofuranosyl)-5-fluorocytosine (ara-FC)"}
    ]}
  ]
}
